Columns and labels:
[1] = tested on: MYCN-amplified NB cells (IMR-32, ATCC CCL-127); assay: Antiproliferative effect of co-drug loaded nanoparticles on neuroblastoma cells; assay type: cell-based; conditions: IMR-32 cells, doses equivalent to 5-20 ng SN-22 per well, 96-well plates
Procedure: Blank NP were used as a negative control, and unmodified SN-22, diluted in cell culture medium from a DMSO stock, was used as a positive control.
Cell growth curves of NB cells treated with co-drug loaded nanoparticles at doses corresponding to 5 ng SN-22 per well (96-well plates) for 24 hours are shown in comparison to “no treatment”, drug-free nanoparticles and free SN-22 (upper panel). Cell growth inhibition (%) determined 6 days post-treatment is shown for co-drug loaded and drug-free (control) nanoparticles as a function of dose and exposure duration (lower panel).

[2] = Acid strength (pKa) of the ester-forming acid of model compounds; assay type: physicochemical; conditions: pKa of the acid forming the ester bond
Source text: Table 1 illustrates the effect of acid strength on rate of hydrolytic cleavage for several model compounds.

[3] = Release studies of co-drug loaded nanoparticles, external sink method; assay type: physicochemical; conditions: sink conditions, 37° C., acceptor medium heptane/methyl tert-butyl ether 1:1 v/v
Procedure: Release samples were also analyzed by TLC (right panel). […] (lane 3 vs. 2). Free SN-22 is included in lane 1.

CCc1c2c(nc3ccccc13)-c1cc3c(c(=O)n1C2)COC(=O)[C@]3(O)CC [SN-22, 7-ethylcamptothecin]
Cell growth / proliferation inhibition [1]: fully inhibited cell growth

CCOC(=O)COC [CH3OCH2COOEt]
Acid pKa [2]: 3.6

SN-22 ester of tocopheryl oxyacetic acid [SN22-TOAc]
Release rate from nanoparticles [3]: more stable retention

CCOC(C)=O [CH3COOEt]
Acid pKa [2]: 4.7

CCOC(=O)C(=O)NC [CH3NHCOCOEt]
Acid pKa [2]: 1.8

CCOC(=O)COC(C)=O [CH3COOCH2COOEt]
Acid pKa [2]: 2.7

Reference: patent publication US11633485B2, “Cleavable esters for nanocarrier-based cancer therapy” (priority 2017, dated 2023)
